Measured values as given in patent US20240124510A1, “Cyclic Glycoaminoacid Derivatives” (TFCHEM, priority 2021, published 2024).
“And” between values parts separate entries of the source, which are not always exact repeats. Equal entries are not always repeated.

Columns and labels:
[1] = tested on: Normal human epidermal keratinocytes (NHEK); assay: Lipid peroxidation in NHEK under UV stimulation (C11-fluor probe, flow cytometry); assay type: cell-based; conditions: 100 μM, irradiated UVB 300 mJ/cm^2 (+UVA 2.1 J/cm^2)
Protocol: Normal human epidermal keratinocytes were seeded in 48-well plates and cultured in culture medium for 24 hours and then in assay medium for a further 24 hours. The medium was then removed and replaced by assay medium containing or not (irradiated control) the test compounds or the reference (BHA—butylated hydroxyanisole, lipid peroxidation inhibitor—at 100 μM) and the cells were pre-incubated for 24 hours. After pre-incubation, the specific fluorescent probe for the measurement of lipid peroxides (C11-fluor) was added and the cells were incubated for 45 minutes. Then, the medium was removed and replaced by assay medium containing or not (irradiated control and test compound conditions) the reference and the cells were irradiated with UVB (+UVA)−300 mJ/cm^2 (+2.1 J/cm^2). The lamp used was a SOL500 Sun Simulator equipped with an H2 filter (Dr. Hbnle. AG). After irradiation, the medium was removed and replaced by assay medium containing or not (irradiated control) the test compounds or the reference and the cells were incubated for 30 minutes before flow cytometry analysis. A non-irradiated control condition was performed in parallel. All experimental conditions were performed in triplicate.
At the end of the incubation, in each well, the cells were trypsinized and transferred into specific tubes for the analysis of C11-fluor fluorescence intensity using a BD FACSVerse™ flow cytometer (acquisition of 2000 to 5000 events per tube). The C11-fluor fluorescent probe is a lipid analogue which integrates cell membranes. As the fluorescence intensity of this probe is decreased with oxidation, it is inversely proportional to the lipid peroxidation. In order to facilitate the result interpretation, the lipid peroxidation was expressed using the value “1/fluorescence intensity” in order to have a direct proportionality between the induction of lipid peroxidation and the values of “% of irradiated control”.
Results presented in Table 24 are expressed as fluorescence intensity and as […] of protection compared to the control.

[2] = tested on: MCP1; assay: Extracellular secretion of MCP1 by preadipocytes in inflammatory condition (ELISA); assay type: cell-based, human
Protocol: (§1) Preadipocytes have been isolated from human female hypodermis (body mass index <30 kg/m2 and <45 years old). Preadipocytes have been cultured for 24 h in 100 μl of DMEM-10% Fetal Bovine Serum (FBS) in 96-well plates. Then cells were treated to induce their differentiation in a classical or an inflammatory environment for 13 days.
(§2) To induce the preadipocytes differentiation cells were incubated in a proadipogenic cocktail (PAC) including insulin, glucocorticoid, 3-isobutyl-1-methylxanthine (IBMX), and thiazolinedione in DMEM.
(§3) To induce a fibro-inflammatory environment, cells were treated with an activated human macrophage-conditioned medium (AcMC) prepared in RPMI medium. A treatment with Dexamethasone (DXM) at 100 nM was used as anti-inflammatory response control. At D0: preadipocytes have been treated in the following conditions: • “Undifferentiation”: DMEM+¼ RPMI medium • “Differentiation”: PAC+¼ RPMI medium • “AcMC” i.e. inflammatory condition: PAC+¼ AcMC • “AcMC+DXM”: PAC+[…] AcMC+anti-inflammatory DXM at 100 nM • “AcMc+compounds”: PAC+14 AcMC+compounds to be tested
(§4) All conditions have been performed in triplicate. The medium has been changed every 2 days for 13 days.
(§5) At D14: during the last 24 h of culture, the medium has been replaced by DMEM/F12 medium in all conditions, to collect cells' secretions.
(§6) After 13 days, the 24 h culture media of the different conditions have been collected at the end of the treatment period. The concentrations of IL-6, procollagen I and MCP1 have been evaluated by ELISA assays using specific kits (for IL-6: DY206, DuoSet ELISA, R&D Systems; for Procollagen I: DY6220-05, DuoSet ELISA, R&D Systems; for MCP1: DY279-05 DuoSet ELISA, R&D Systems) according to the manufacture's recommendations. Values have been normalized to the cell number determined by DAPI staining.
Quantity of MCP1 secreted in medium was measured and was normalized by cell number in each culture condition. Data are represented in percentage of proinflammatory control condition (AcMC condition).

[3] = tested on: IL-6; assay: Extracellular secretion of IL-6 by preadipocytes in inflammatory condition (ELISA); assay type: cell-based, human
Protocol: as §1, §2, §3, §4, §5, §6
Quantity of IL-6 secreted in medium was measured and was normalized by cell number in each culture condition. Data are represented in percentage of proinflammatory control condition (AcMC condition).

[4] = tested on: human preadipocytes; assay: Total lipid accumulation (AdipoRed staining) in preadipocytes/adipocytes in inflammatory condition; assay type: cell-based; conditions: AcMC + 100 nM, end of the culture
Protocol: as §1, §2, §3, §4
After 14 days of culture, preadipocytes have been fixed with 4% paraformaldehyde and then stained by AdipoRed™ at room temperature to reveal the intracellular lipid droplets. Quantification of lipid accumulation has been performed by fluorescence intensity measurements using the spectrophotometer Spark (TECAN).
Lipid accumulation and Lipid index were evaluated for each condition. Data are represented in percentage of proinflammatory control condition (AcMC condition).

[5] = tested on: IL-6; assay: IL-6 secretion in coculture of human aged fibroblasts and mature adipocytes (AM3D-FB2D, ELISA); assay type: cell-based; conditions: for secretion of IL-6 in percentage of the coculture control condition, Mean (%) / secretion of IL-6 in percentage of the coculture control condition, Values (%): 100 nM; for secretion of IL-6 in percentage of the coculture control condition, Values (%): individual replicates; for IL-6 secretion in percentage of the coculture control condition: anti-inflammatory reference item
Description: In order to evaluate its effect on fibroblast matrix and its anti-inflammatory properties, the effect of compound 6 has been tested on an adipocytes-aged fibroblasts coculture model, mimicking the interactions between dermis and hypodermis in the skin and allowed to explore in parallel the biological effects of the products on two cellular targets.
• Experimental model: co-culture of human mature adipocytes cultured in 3D and human dermal fibroblasts cultured in 2D (AM3D-FB2D co-culture). This experimental model of AM3D-FB2D co-culture mimicked the interactions between dermis and hypodermis in the skin and allowed to explore in parallel the biological effects of the products on two cellular targets. • Donor characteristics: This study was performed on mature adipocytes and fibroblasts from two different donors (one donor for mature adipocytes and another donor for dermal fibroblasts). • Fibroblasts donor=person, BMI=28 kg/m^2 • Adipocytes donor=person, BMI=21.4 kg/m^2 • Treatment procedure: compound 6 was added to the co-culture medium daily for up to 6 days
Dermal fibroblasts were seeded in DMEM 10% FBS at 10000 cells/well. The day after, the adipocytes capsules of 50 μl were added in suspension above the fibroblasts and the medium was changed and replaced by a specific culture medium for the co-culture AM3D-FB2D. The formation of adipocytes capsules followed an internal standardized protocol. Briefly, the fully mature adipocytes were isolated from the hypodermis after digestion by collagenase. The isolated adipocytes were then washed with a wash buffer and encapsulated in a peptidic hydrogel to form 3D adipocytes capsules of 50 μl in size. Cells were incubated at 37° C. and 5% CO2 overnight for stabilization. Treatments were initiated at DO with a medium change at DO, D2, D3 and D5. The entire culture media of 24 h incubation was collected at D3 and D6, before being centrifugated and stored at −80° C. Each culture condition was done in triplicate.
The biochemical analyses on culture media were performed via ELISA using specific kits according to the manufacturer's recommendations: IL-6 (Duoset DY206, R&D Systems), and Hyaluronic Acid (HA) (Duoset, DY3614-05, R&D Systems and Procollagen I (Duoset, DY6220-05, R&D Systems) The results of HA and Procollagen I were normalized by fibroblasts cell number regarding the fact that these molecules were secreted mainly by fibroblasts. All the biochemical results were represented in percentage of the control condition.
To evaluate the effect of the compound 6 on inflammation, the extracellular concentrations of IL-6, that is secreted by the fibroblasts but mainly by the adipocytes, were measured at D3 and D6.

[6] = tested on: Collagen I fibers; assay: Quantity of Collagen 1 fibers produced by preadipocytes in inflammatory condition (immunofluorescence); assay type: cell-based, human; conditions: AcMC + 100 nM, normalized by cells number (DAPI)
Protocol: as §1, §2, §3
One month after fixation of preadipocytes cultivated in pro-inflammatory environment, cells were incubated with 3% Bovine Serum Albumin (BSA) for 30 min in order to block the non-specific sites, then with primary antibody anti-collagen 1 (Novusbio, NB600-408) over-night. After washes with PBS, cells were incubated for 30 min with 3% BSA and then with the secondary antibodies (Goat anti-rabbit alexa-fluor 488, ThermoFisher, A11008) and DAPI (for nuclei staining) for 1 h. After several washes, the acquisition and the quantification were performed with a fluorescent video-microscope. Briefly, the quantification was based on the detection and quantification of cell nuclei stained with DAPI, and the detection of collagen 1 staining. Collagen 1 fibers were detected and measured for their length, thickness and intensity. A Collagen 1 fibers quantity was calculated (Quantity=length*thickness*fluorescence intensity) and normalized by cells number (DAPI staining).
Collagen I fibers (fibrillar collagen I) quantity was quantified and the data were normalized by cell number (DAPI staining, quantification of nuclei number). Data are represented in percentage of proinflammatory control conditions (AcMC condition).

[7] = AcMC + 100 nM, normalized by cells number (DAPI)
[8] = AcMC + 100 nM, normalized by cells number (DAPI), individual values

## COc1ccc(O)c(C(C)(C)C)c1 [BHA, Butylated hydroxyanisole, reference compound]
[1]
  % Irradiated control (lipid peroxidation): 31%
  % Protection (lipid peroxidation): 75%
  C11-fluor 1/GMFI Mean (AU): 2.7E−04 AU
[1]; individual replicates
  C11-fluor 1/GMFI (AU): 1.90E−04 AU and 2.74E−04 AU and 3.37E−04 AU
  C11-fluor GMFI (AU): 5266 AU and 3653 AU and 2965 AU

## C[C@@H]1C[C@H]2[C@@H]3CCC4=CC(=O)C=C[C@]4(C)[C@@]3(F)[C@@H](O)C[C@]2(C)[C@@]1(O)C(=O)CO [Dexamethasone, reference compound]
[2]; [7]
  MCP1 secretion, Mean (%): 95 % of AcMC condition
[2]; [8]
  MCP1 secretion, Values (%): 82.4 % of AcMC condition and 106.8 % of AcMC condition and 97.2 % of AcMC condition
[2]; AcMC, DXM at 100 nM
  Effect on the MCP1 secretion: no effect
[3]; [7]
  IL-6 secretion, Mean: 22.8 % of AcMC condition
[3]; [8]
  IL-6 secretion, Values: 21.9 % of AcMC condition and 21.8 % of AcMC condition and 24.5 % of AcMC condition
[3]; preadipocytes/adipocytes, AcMC, 100 nM
  IL-6 secreted, normalized by cell number, in % of AcMC condition: 22.8%
[4]
  Total Lipid Accumulation (Adipored staining), Mean: 220.6 % of AcMC condition
[4]; individual values
  Total Lipid Accumulation (Adipored staining), Values: 213.8 % of AcMC condition and 229.4 % of AcMC condition and 218.6 % of AcMC condition
[5]; D3
  secretion of IL-6 in percentage of the coculture control condition, Mean (%): 34%
  secretion of IL-6 in percentage of the coculture control condition, Values (%): 22% and 48% and 31%
[5]; D6
  secretion of IL-6 in percentage of the coculture control condition, Mean (%): 41%
  secretion of IL-6 in percentage of the coculture control condition, Values (%): 39% and 24% and 61%
[5]; 3 days of treatment
  IL-6 secretion in percentage of the coculture control condition: 34%
[5]; 6 days of treatment
  IL-6 secretion in percentage of the coculture control condition: 41%
[6]
  Collagen I fibers quantity, Mean (%): 391 % of AcMC condition
[6]; individual values
  Collagen I fibers quantity, Values (%): 397.3 % of AcMC condition and 390.0 % of AcMC condition and 384.5 % of AcMC condition
